The results in this text go back to ChEMBL document CHEMBL2390819, “A convenient synthesis of GDP-D-rhamnose: the donor substrate for D-rhamnosyltransferase WbpZ from Pseudomonas aeruginosa PAO1” (Bioorg Med Chem Lett, 2013).

The target of the test is T1, D-rhamnosyltransferase WbpZ (Pseudomonas aeruginosa (strain ATCC 15692 / PAO1 / 1C / PRS 101 / LMG12228)) (UniProt Q9HTC0).
T1 sequence (whole entry): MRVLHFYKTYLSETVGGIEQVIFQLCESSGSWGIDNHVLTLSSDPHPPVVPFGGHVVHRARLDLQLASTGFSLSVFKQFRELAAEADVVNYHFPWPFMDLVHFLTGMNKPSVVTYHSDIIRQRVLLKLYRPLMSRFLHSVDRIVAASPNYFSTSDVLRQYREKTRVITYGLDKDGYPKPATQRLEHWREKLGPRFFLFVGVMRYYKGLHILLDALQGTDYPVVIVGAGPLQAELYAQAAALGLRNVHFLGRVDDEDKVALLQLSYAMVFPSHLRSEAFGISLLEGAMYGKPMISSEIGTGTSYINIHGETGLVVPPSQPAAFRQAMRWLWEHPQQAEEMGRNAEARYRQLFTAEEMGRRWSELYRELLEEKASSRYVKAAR
The experiment in a line: Activity at Pseudomonas aeruginosa PAO1 his-tagged D-rhamnosyltransferase WbpZ expressed in Escherichia coli BL21 at 0.25 mM after 1 hr by MALDI-MS analysis.

Calls of active or inactive are those of the source. The calls are words filed in the database; no cut-off is given here.

As to `C[C@H]1O[C@H](OP(=O)(O)OP(=O)(O)OC[C@H]2O[C@@H](n3cnc4c(=O)[nH]c(N)nc43)[C@H](O)[C@@H]2O)[C@@H](O)[C@@H](O)[C@@H]1O`, the result was Active.
